Assays:
[1] = Suspension of crystalline form W in water, XRPD comparison; type: physicochemical; settings: suspended in water of 20° C. and 60° C. for 4 days; form W prepared in Example 1; FIG. 5
Procedure: (§1) X-ray powder diffraction instrument: Brucker D8 advance X-ray powder diffraction; radiation source: copper target (α=1.540600 Å), scanning at room temperature; voltage: 40 kv; Current: 40 mA; starting 2θ: 2.000°, scanning range: 2.0000-50.000°; step size: 0.020°; measuring time: 12.6 seconds/step.
Crystalline forms W of canagliflozin prepared in Examples 1-7 were suspended in water of 20° C. and 60° C. for 4 days.

[2] = Crystalline form competition experiment: 1:1 mixture of form W and hemihydrate form suspended in water, XRPD comparison; type: physicochemical
Procedure: as §1
Crystalline forms W of canagliflozin prepared in Examples 1-7 were mixed with the hemihydrate crystalline of canagliflozin (the product after crystallization) prepared in Example 1 in WO2008069327 in a ratio of 1:1, and the mixtures were suspended in water of 20° C. and 60° C. for 4 days, respectively.

SMILES	stability of crystalline form (XRPD pattern) after suspending in water [1]	relative stability in the crystalline form competition experiments ([2]; versus hemihydrate crystalline form, 1:1 mixture in water of 20° C. and 60° C. for 4 days)	crystalline form transformation in the 1:1 mixture (XRPD pattern) ([2]; 1:1 mixture of form W (Example 1) and hemihydrate form of WO2008069327, suspended in water of 20° C. and 60° C. for 4 days, FIG. 6)
Cc1ccc([C@@H]2O[C@H](CO)[C@@H](O)[C@H](O)[C@H]2O)cc1Cc1ccc(-c2ccc(F)cc2)s1 [crystalline form W, 1-(β-D-glucopyranosyl)-4-methyl-3-[5-(4-fluorophenyl)-2-thienylmethyl]benzene]	excellent stability	better stability	–
Cc1ccc([C@@H]2O[C@H](CO)[C@@H](O)[C@H](O)[C@H]2O)cc1Cc1ccc(-c2ccc(F)cc2)s1 [hemihydrate crystalline form, 1-(β-D-glucopyranosyl)-4-methyl-3-[5-(4-fluorophenyl)-2-thienylmethyl]benzene, reference compound]	–	–	completely transformed into crystalline form W

— US10167306B2, “Crystalline form of 1-(beta-D-glucopyranosyl)-4-methyl-3-[5-(4-fluorophenyl)-2-thienylmethyl]benzene and preparation method thereof” (SHANGHAI DESANO PHARMACEUTICALS INVESTMENT CO., LTD, priority 2015, dated 2019)
